US11691984B2, “Compounds and methods for DCAF-mediated protein degradation” (The Scripps Research Institute, priority 2018, dated 2023)

Key:
ACAT1 = target: T1, ACAT1 (Homo sapiens, UniProt P24752); assay: Proteome-wide SILAC MS protein abundance in HEK293T cells: ACAT1; format: cell-based; details: 24 hours
T1 construct: endogenous in cells; host or cells: HEK293T
T1 sequence (P24752 34-427): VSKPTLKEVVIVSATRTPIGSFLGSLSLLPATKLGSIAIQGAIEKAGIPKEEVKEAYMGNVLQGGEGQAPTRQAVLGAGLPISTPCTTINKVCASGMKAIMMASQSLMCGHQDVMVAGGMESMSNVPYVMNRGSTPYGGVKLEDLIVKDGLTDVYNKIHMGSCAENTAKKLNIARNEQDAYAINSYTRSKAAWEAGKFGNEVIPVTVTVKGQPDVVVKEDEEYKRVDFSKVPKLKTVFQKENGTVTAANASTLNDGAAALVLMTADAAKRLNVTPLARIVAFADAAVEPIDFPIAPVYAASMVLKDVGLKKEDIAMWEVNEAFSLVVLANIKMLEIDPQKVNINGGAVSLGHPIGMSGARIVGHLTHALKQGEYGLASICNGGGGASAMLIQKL
Description: (§1) HEK293T light and heavy SILAC cells were treated with DMSO and KB02-JQ1 (20 μM) or KB02-SLF (2 μM) for 24 hours, respectively. Light and heavy cells were collected and lysed in 1% NP-40 lysis buffer with complete protease inhibitor cocktail. Cells were vortexed and sonicated for 5 pulses (40%, 4). The supernatant was collected after centrifugation at 16,000 g for 10 min at 4° C. Protein concentration was determined by DC assay. 50 μg proteome from light and heavy samples were mixed, followed by methanol/chloroform precipitation. […] Next, the ratio of the peak areas under the light and heavy signals (signal-to-noise ratio>2.5) was calculated. […] In addition, peptides detected as ‘singletons,’ where only the heavy ion of a peptide pair was identified, but that cleared all other filtering parameters, were given a default assigned ratio of ‘20,’ which is defined as any measured ratio that is ≥20 and is the maximum ratio reported here.” The median SILAC ratios from quantified peptides were used as measures of protein abundance. The following quality filters were further applied to generate the plot: (1) proteins must have at least two quantified peptides; (2) proteins must be present in both replicates; (3) for each protein, the standard deviation of measured ratios of peptides must be <1.0.

BRD4 = target: T2, BRD4 (Homo sapiens, UniProt O60885); assay: Proteome-wide SILAC MS protein abundance in HEK293T cells: BRD4; format: cell-based; details: 24 hours
T2 construct: degradation of endogenous BRD4 in HEK293T cells; endogenous in cells; host or cells: HEK293T (A10, A16); HEK293 DCAF16+/+ and DCAF16-/- clones (A11)
Description: as §1

Row | Compound | ACAT1 abundance (MS-based proteomics) (ACAT1; KB02-JQ1 20 μM) | BRD4 abundance (MS-based proteomics) (BRD4; KB02-JQ1 20 μM) | ACAT1 abundance (MS-based proteomics) (ACAT1; KB02-SLF 2 μM) | BRD4 abundance (MS-based proteomics) (BRD4; KB02-SLF 2 μM)
1 | Cc1sc2c(c1C)C(c1ccc(Cl)cc1)=N[C@@H](CC(=O)NCCOCCOCCNC(=O)COc1ccc3c(c1)CCCN3C(=O)CCl)c1nnc(C)n1-2 [KB02-JQ1, (S)-2-((1-(2-chloroacetyl)-1,2,3,4-tetrahydroquinolin-6-yl)oxy)-N-(2-(2-(2-(2-(4-(4-chlorophenyl)-2,3,9-trimethyl-6H-thieno[3,2-f][1,2,4]triazolo[4,3-a][1,4]diazepin-6-yl)acetamido)ethoxy)ethoxy)ethyl)acetamide] | substantially decreased abundance | selective degradation of BRD4 | – | –
2 | CCC(C)(C)C(=O)C(=O)N1CCCC[C@H]1C(=O)O[C@H](CCc1ccc(OC)c(OC)c1)c1cccc(NC(=O)CCOCCOCCNC(=O)COc2ccc3c(c2)CCCN3C(=O)CCl)c1 [KB02-SLF, (R)-1-(3-(3-(2-(2-(2-((1-(2-chloroacetyl)-1,2,3,4-tetrahydroquinolin-6-yl)oxy)acetamido)ethoxy)ethoxy)propanamido)phenyl)-3-(3,4-dimethoxyphenyl)propyl (S)-1-(3,3-dimethyl-2-oxopentanoyl)piperidine-2-carboxylate] | – | – | reductions in ACAT1 | not BRD4
